Measurements reported in patent publication US20250018046A1, “COMPOUNDS FOR TARGETING DEGRADATION OF IRAK4 PROTEINS” (BIOGEN MA INC, priority 2021, published 2025).

target: T1, IRAK4 (Homo sapiens, UniProt Q9NWZ3); test: IRAK4 degradation assay using the HiBiT Method; type: cell-based; settings: 293T cells expressing HiBiT-tagged IRAK4; 6-hour incubation; Nano-Glo HiBiT Lytic Assay luminescence
T1 construct: knocking-in a HiBiT fusion tag into the C-terminal of the IRAK4 gene in 293T cells; host or cells: 293T cells, knock-in of HiBiT at the endogenous IRAK4 locus
T1 sequence (Q9NWZ3 1-460): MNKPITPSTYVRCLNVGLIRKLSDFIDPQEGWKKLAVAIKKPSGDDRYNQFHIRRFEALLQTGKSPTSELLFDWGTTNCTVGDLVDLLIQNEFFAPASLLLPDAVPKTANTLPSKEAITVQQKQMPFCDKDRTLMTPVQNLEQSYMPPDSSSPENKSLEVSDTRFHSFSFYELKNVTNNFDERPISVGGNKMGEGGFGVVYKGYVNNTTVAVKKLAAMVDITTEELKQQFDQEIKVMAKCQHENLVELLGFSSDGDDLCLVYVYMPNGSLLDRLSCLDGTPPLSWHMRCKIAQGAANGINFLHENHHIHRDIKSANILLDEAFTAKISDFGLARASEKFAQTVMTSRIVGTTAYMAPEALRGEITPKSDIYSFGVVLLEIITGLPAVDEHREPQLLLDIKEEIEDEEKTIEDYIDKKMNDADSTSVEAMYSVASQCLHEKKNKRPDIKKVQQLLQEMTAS
Description: Selected compounds were tested in an IRAK4 degradation assay using the HiBiT Method.
Phenol red-free Dulbecco's modified Eagle medium (DMEM) and fetal bovine serum (FBS) were purchased from Gibco (Grand Island, NY, USA). The Nano-Glo© HiBiT Lytic Assay System was purchased from Promega (Madison, WI, USA). Cell culture flasks and 384-well microplates were acquired from VWR (Radnor, PA, USA). The 293T cell line was engineered by knocking-in a HiBiT fusion tag into the C-terminal of the IRAK4 gene in 293T cells (Synthego, Redwood City, CA, USA).
IRAK4 degradation was measured via the quantification of luminescent signals using the Nano-Glo© HiBiT Lytic Assay kit. Test compounds were added to 384-well plates in duplicate using an 11-point half-log dilution series, with the highest dose set at 10 mM. 293T cells expressing HiBiT-tagged IRAK4 were then added into 384-well plates at a cell density of 10,000 cells per well. The plates were kept at 37° C. with 5% CO2 for 6 hours. Cells that were treated only with DMSO served as the negative control; wells that contained only assay media served as the background control. After the 6-hour incubation, Nano-Glo® HiBiT Lytic Assay reagents were added to the cells. Luminescence was acquired using an EnVision® Multilabel Reader (PerkinElmer, Santa Clara, CA, USA).

`CC(C)Oc1cn2cc(C3CCN(CC(=O)N4CCC(c5ccc(NC6CCC(=O)NC6=O)cc5)CC4)CC3)nc2cc1NC(=O)c1cccc(C(F)(F)F)n1` (single isomer, unassigned) [Example 14, N-[2-[1-[2-[4-[4-[[2,6-dioxo-3-piperidyl]amino]phenyl]-1-piperidyl]-2-oxo-ethyl]-4-piperidyl]-6-isopropoxy-imidazo[1,2-a]pyridin-7-yl]-6-(trifluoromethyl)pyridine-2-carboxamide] and `CC(C)Oc1cc2nc(C3CCN(C(=O)CN4CCC(c5ccc(NC6CCC(=O)NC6=O)cc5)CC4)CC3)cn2cc1NC(=O)c1cccc(C(F)(F)F)n1` (stereo not drawn) [Example 9, N-[2-[1-[2-[4-[4-[(2,6-dioxo-3-piperidyl)amino]phenyl]-1-piperidyl]acetyl]-4-piperidyl]-7-isopropoxy-imidazo[1,2-a]pyridin-6-yl]-6-(trifluoromethyl)pyridine-2-carboxamide] fall in the same range of DC50: 10 to 100 nM for the first, 10 to 100 nM for the second.

First: CC(C)Oc1cn2cc(C3CCN(CC(=O)N4CCC(c5ccc(NC6CCC(=O)NC6=O)cc5)CC4)CC3)nc2cc1NC(=O)c1cccc(C(F)(F)F)n1 (single isomer, unassigned) [Example 15, N-[2-[1-[2-[4-[4-[[2,6-dioxo-3-piperidyl]amino]phenyl]-1-piperidyl]-2-oxo-ethyl]-4-piperidyl]-6-isopropoxy-imidazo[1,2-a]pyridin-7-yl]-6-(trifluoromethyl)pyridine-2-carboxamide]
Second: CC(C)Oc1cc2nc(C3CCN(C(=O)CN4CCC(c5cccc(NC6CCC(=O)NC6=O)c5)CC4)CC3)cn2cc1NC(=O)c1cccc(C(F)(F)F)n1 (stereo not drawn) [Example 3, N-[2-[1-[2-[4-[3-[(2,6-dioxo-3-piperidyl)amino]phenyl]-1-piperidyl]acetyl]-4-piperidyl]-7-isopropoxy-imidazo[1,2-a]pyridin-6-yl]-6-(trifluoromethyl)pyridine-2-carboxamide]
The DC50 of the first is lower: 10 to 100 nM for the first, 100 to 500 nM for the second.

`CC(C)Oc1cc2nc(C3CCN(C(=O)CN4CCC(c5ccc(OC6CCC(=O)NC6=O)cc5)CC4)CC3)cn2cc1NC(=O)c1cccc(C(F)(F)F)n1` (stereo not drawn) [Example 1, N-[2-[1-[2-[4-[4-[(2,6-dioxo-3-piperidyl)oxy]phenyl]-1-piperidyl]acetyl]-4-piperidyl]-7-isopropoxy-imidazo[1,2-a]pyridin-6-yl]-6-(trifluoromethyl) pyridine-2-carboxamide] and `CC(C)Oc1cc2nc(C3CCN(C(=O)CN4CCC(c5ccc(C6CCC(=O)NC6=O)cc5)CC4)CC3)cn2cc1NC(=O)c1cccc(C(F)(F)F)n1` (stereo not drawn) [Example 4, N-[2-[1-[2-[4-[4-(2,6-dioxo-3-piperidyl)phenyl]-1-piperidyl]acetyl]-4-piperidyl]-7-isopropoxy-imidazo[1,2-a]pyridin-6-yl]-6-(trifluoromethyl)pyridine-2-carboxamide] fall in the same range of DC50: 100 to 500 nM for the first, 100 to 500 nM for the second.

First: CC(C)Oc1cc2nc(C3CCN(C(=O)CN4CCC(c5cccc(NC6CCC(=O)NC6=O)c5F)CC4)CC3)cn2cc1NC(=O)c1cccc(C(F)(F)F)n1 (stereo not drawn) [Example 2, N-[2-[1-[2-[4-[3-[(2,6-dioxo-3-piperidyl)amino]-2-fluoro-phenyl]-1-piperidyl]acetyl]-4-piperidyl]-7-isopropoxy-imidazo[1,2-a]pyridin-6-yl]-6-(trifluoromethyl)pyridine-2-carboxamide]
Second: CC(C)Oc1cc2nc(C3CCN(CC(=O)N4CCC(c5cccc(NC6CCC(=O)NC6=O)c5F)CC4)CC3)cn2cc1NC(=O)c1cccc(C(F)(F)F)n1 (stereo not drawn) [Example 13, N-[2-[1-[2-[4-[3-[(2,6-dioxo-3-piperidyl)amino]-2-fluoro-phenyl]-1-piperidyl]-2-oxo-ethyl]-4-piperidyl]-7-isopropoxy-imidazo[1,2-a]pyridin-6-yl]-6-(trifluoromethyl)pyridine-2-carboxamide]
The DC50 of the first is lower: 10 to 100 nM for the first, 100 to 500 nM for the second.

`CC(C)Oc1cc2nc(C3CCN(C(=O)CN4CCN(c5ccc(C6CCC(=O)NC6=O)cc5)CC4)CC3)cn2cc1NC(=O)c1cccc(C(F)(F)F)n1` (stereo not drawn) [Example 5, N-[2-[1-[2-[4-[4-(2,6-dioxo-3-piperidyl)phenyl]piperazin-1-yl]acetyl]-4-piperidyl]-7-isopropoxy-imidazo[1,2-a]pyridin-6-yl]-6-(trifluoromethyl)pyridine-2-carboxamide] and `CC(C)Oc1cc2nc(C3CCN(C(=O)CN4CCN(c5ccc(OC6CCC(=O)NC6=O)cc5)CC4)CC3)cn2cc1NC(=O)c1cccc(C(F)(F)F)n1` (stereo not drawn) [Example 6, N-[2-[1-[2-[4-[4-[(2,6-dioxo-3-piperidyl)oxy]phenyl]piperazin-1-yl]acetyl]-4-piperidyl]-7-isopropoxy-imidazo[1,2-a]pyridin-6-yl]-6-(trifluoromethyl)pyridine-2-carboxamide] fall in the same range of DC50: 100 to 500 nM for the first, 100 to 500 nM for the second.

First: CC(C)Oc1cc2nc(C3CCN(C(=O)CN4CCC(c5ccc(NC6CCC(=O)NC6=O)cc5F)CC4)CC3)cn2cc1NC(=O)c1cccc(C(F)(F)F)n1 (stereo not drawn) [Example 7, N-[2-[1-[2-[4-[4-[(2,6-dioxo-3-piperidyl)amino]-2-fluoro-phenyl]-1-piperidyl]acetyl]-4-piperidyl]-7-isopropoxy-imidazo[1,2-a]pyridin-6-yl]-6-(trifluoromethyl)pyridine-2-carboxamide]
Second: CC(C)Oc1cc2nc(C3CCN(C(=O)CCN4CCC(c5ccc(NC6CCC(=O)NC6=O)cc5F)CC4)CC3)cn2cc1NC(=O)c1cccc(C(F)(F)F)n1 (stereo not drawn) [Example 8, N-[2-[1-[3-[4-[4-[(2,6-dioxo-3-piperidyl)amino]-2-fluoro-phenyl]-1-piperidyl]propanoyl]-4-piperidyl]-7-isopropoxy-imidazo[1,2-a]pyridin-6-yl]-6-(trifluoromethyl)pyridine-2-carboxamide]
The DC50 of the first is higher: 100 to 500 nM for the first, 10 to 100 nM for the second.

`CC(C)Oc1cc2nc(C3CCN(C(=O)CN4CCN(c5ccc(NC6CCC(=O)NC6=O)cc5)CC4)CC3)cn2cc1NC(=O)c1cccc(C(F)(F)F)n1` (stereo not drawn) [Example 10, N-[2-[1-[2-[4-[4-[(2,6-dioxo-3-piperidyl)amino]phenyl]piperazin-1-yl]acetyl]-4-piperidyl]-7-isopropoxy-imidazo[1,2-a]pyridin-6-yl]-6-(trifluoromethyl)pyridine-2-carboxamide] and `CC(C)Oc1cc2nc(C3CCN(CC(=O)N4CCN(CCCc5ccc(NC6CCC(=O)NC6=O)cc5)CC4)CC3)cn2cc1NC(=O)c1cccc(C(F)(F)F)n1` (stereo not drawn) [Example 16, N-[2-[1-[2-[4-[3-[4-[(2,6-dioxo-3-piperidyl)amino]phenyl]propyl]piperazin-1-yl]-2-oxo-ethyl]-4-piperidyl]-7-isopropoxy-imidazo[1,2-a]pyridin-6-yl]-6-(trifluoromethyl) pyridine-2-carboxamide] fall in the same range of DC50: 100 to 500 nM for the first, 100 to 500 nM for the second.

Compared with `CC(C)Oc1cc2nc(C3CCN(CC(=O)N4CCC(c5ccc(NC6CCC(=O)NC6=O)cn5)CC4)CC3)cn2cc1NC(=O)c1cccc(C(F)(F)F)n1` (stereo not drawn) [Example 11, N-[2-[1-[2-[4-[5-[(2,6-dioxo-3-piperidyl)amino]-2-pyridyl]-1-piperidyl]-2-oxo-ethyl]-4-piperidyl]-7-isopropoxy-imidazo[1,2-a]pyridin-6-yl]-6-(trifluoromethyl)pyridine-2-carboxamide], `CC(C)Oc1cc2nc(C3CCN(CC(=O)N4CCC(c5cccc(NC6CCC(=O)NC6=O)c5)CC4)CC3)cn2cc1NC(=O)c1cccc(C(F)(F)F)n1` (stereo not drawn) [Example 17, N-[2-[1-[2-[4-[3-[(2,6-dioxo-3-piperidyl)amino]phenyl]-1-piperidyl]-2-oxo-ethyl]-4-piperidyl]-7-isopropoxy-imidazo[1,2-a]pyridin-6-yl]-6-(trifluoromethyl)pyridine-2-carboxamide] is lower in DC50: 100 to 500 nM for the first, 10 to 100 nM for the second.

Compared with `CC(C)Oc1cc2nc(C3CCN(CC(=O)N4CCC(c5ccc(C6(F)CCC(=O)NC6=O)cc5)CC4)CC3)cn2cc1NC(=O)c1cccc(C(F)(F)F)n1` (stereo not drawn) [Example 12, N-[2-[1-[2-[4-[4-(3-fluoro-2,6-dioxo-3-piperidyl)phenyl]-1-piperidyl]-2-oxo-ethyl]-4-piperidyl]-7-isopropoxy-imidazo[1,2-a]pyridin-6-yl]-6-(trifluoromethyl)pyridine-2-carboxamide], `CC(C)Oc1cc2nc(C3CCN(CC(=O)N4CCN(c5cc6c(cc5F)c(N5CCC(=O)NC5=O)nn6C)CC4)CC3)cn2cc1NC(=O)c1cccc(C(F)(F)F)n1` [Example 18, N-(2-(1-(2-(4-(3-(2,4-dioxotetrahydropyrimidin-1(2H)-yl)-5-fluoro-1-methyl-1H-indazol-6-yl)piperazin-1-yl)-2-oxoethyl)piperidin-4-yl)-7-isopropoxyimidazo[1,2-a]pyridin-6-yl)-6-(trifluoromethyl)picolinamide] is lower in DC50: 100 to 500 nM for the first, 10 to 100 nM for the second.
